Data on one compound can be found in patent publication US20230192683A1, “FUSED RING COMPOUNDS, PREPARATION METHOD THEREFOR, PHARMACEUTICAL COMPOSITIONS AND USE THEREOF” (priority 2020, published 2023).

Structures are written as SMILES. Marks after values point to notes of the source that are not given here. Where only a bound is given, the exact number is not on record here.

One series concerns rat CFA pain model. The experiment in a line: single-dose pharmacodynamic study in rat CFA pain model (Von Frey PWT). Type of series: in vivo. Here is the method: Each male SD rat (7-8 weeks old) was injected with 50 microliters of CFA in the center of the left hind paw. A PWT basal value test was conducted 24 hours after modeling, and the drugs were administered after randomization.
There were 8 animals in each group, and the animals were weighed and administered according to Table 4.
For all groups of animals, paw withdrawal thresholds (PWTs) of the animals were tested using Von Frey after 1 h and 3 h of single administration.

In the next series the target is T1, human SSTR3 (Homo sapiens, UniProt P32745).
T1 construct: expressed in transfected cells; host or cells: CHO-K1 (membrane homogenates)
T1 sequence (P32745 whole entry): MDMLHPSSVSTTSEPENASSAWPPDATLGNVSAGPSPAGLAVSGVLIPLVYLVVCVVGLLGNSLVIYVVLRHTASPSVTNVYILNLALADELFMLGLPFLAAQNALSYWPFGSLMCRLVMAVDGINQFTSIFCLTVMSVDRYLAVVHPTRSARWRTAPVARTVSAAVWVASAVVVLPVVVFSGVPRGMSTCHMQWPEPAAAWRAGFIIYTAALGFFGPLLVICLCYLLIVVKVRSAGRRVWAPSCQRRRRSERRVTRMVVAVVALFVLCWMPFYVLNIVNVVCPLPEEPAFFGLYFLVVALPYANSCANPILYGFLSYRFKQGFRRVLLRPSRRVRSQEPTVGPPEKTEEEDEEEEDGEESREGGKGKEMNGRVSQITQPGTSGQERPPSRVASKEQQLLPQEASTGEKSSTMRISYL
The experiment in a line: biochemical. As to conditions: 25° C., 2 hours, Cheng-Prusoff; read-out: Binding Ki (nM) SSTR3. Here is the method:
(§1) Cell membranes were then filtered and washed, and protein-bound radioactivity was measured with a suitable instrument. The Ki values of corresponding targets were calculated using a Cheng-Prusoff formula.

The target of another series is T2, human SSTR5 (Homo sapiens, UniProt P35346).
T2 construct: expressed in transfected cells; host or cells: CHO-K1 (membrane homogenates)
T2 sequence (P35346 whole entry): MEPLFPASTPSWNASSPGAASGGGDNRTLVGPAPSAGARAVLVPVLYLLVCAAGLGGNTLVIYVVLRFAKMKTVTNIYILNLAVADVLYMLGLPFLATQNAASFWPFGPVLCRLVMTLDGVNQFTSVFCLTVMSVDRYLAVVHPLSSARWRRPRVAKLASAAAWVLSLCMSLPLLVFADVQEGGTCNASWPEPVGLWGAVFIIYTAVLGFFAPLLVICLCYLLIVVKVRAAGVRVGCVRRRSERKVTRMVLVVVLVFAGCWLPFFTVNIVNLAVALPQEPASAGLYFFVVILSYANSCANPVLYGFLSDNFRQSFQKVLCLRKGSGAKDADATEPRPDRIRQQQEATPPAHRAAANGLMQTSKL
The experiment in a line: biochemical. As to conditions: 25° C., 2 hours, Cheng-Prusoff; read-out: Binding Ki (nM) SSTR5. The protocol: as §1

A further series concerns the target T3, human SSTR2 (Homo sapiens, UniProt P30874).
T3 construct: expressed in transfected cells; host or cells: CHO-K1 (membrane homogenates)
The experiment in a line: biochemical. Conditions: 25° C., 2 hours, Cheng-Prusoff; read-out: Binding Ki (nM) SSTR2. Here is the method:
as §1

The target in another series is T4, human SSTR1 (Homo sapiens, UniProt P30872).
T4 construct: expressed in transfected cells; host or cells: CHO-K1 (membrane homogenates)
T4 sequence (P30872 whole entry): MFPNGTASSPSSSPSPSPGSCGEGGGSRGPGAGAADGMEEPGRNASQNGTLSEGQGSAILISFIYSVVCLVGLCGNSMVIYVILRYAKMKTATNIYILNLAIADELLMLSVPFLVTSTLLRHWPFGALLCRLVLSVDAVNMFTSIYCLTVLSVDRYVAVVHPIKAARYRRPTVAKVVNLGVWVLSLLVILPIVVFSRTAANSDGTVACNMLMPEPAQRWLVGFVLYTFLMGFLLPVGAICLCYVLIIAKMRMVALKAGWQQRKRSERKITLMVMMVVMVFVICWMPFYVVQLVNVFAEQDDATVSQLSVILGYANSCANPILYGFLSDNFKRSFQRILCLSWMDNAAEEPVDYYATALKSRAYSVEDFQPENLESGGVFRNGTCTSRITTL
The experiment in a line: biochemical. As to conditions: 25° C., 2 hours, Cheng-Prusoff; read-out: Binding Ki (nM) SSTR1. The protocol:
as §1

Series [1] can be described thus: metabolic stability in pooled human liver microsomes. Conditions: pooled human liver microsomes, pH 7.4. Here is the method:
Metabolic degradation of a test compound was analyzed using pooled human liver microsomes and male rat liver microsomes, respectively, at 37° C.
After pre-incubation at 37° C. for 5 min, NADPH (5 mM, 60 µL) was added to initiate a reaction. A fixed volume of the reaction mixture (30 µL) was sampled into the solution at fixed time points (0, 5, 15, 30, 60 min) to quench the reaction. After centrifugation (4000 rpm, 15 min), the supernatant (100 µL) was mixed with distilled water (100 µL) and then subjected to LC-MS/MS analysis to test the amount of the compound. A half-life was calculated using a first-order reaction kinetic equation (Ct = C0 × e^-ket, T½ = Ln2/ke).
A general note: Liver microsomes are a subcellular fraction often used to study metabolism.

T3 sequence (P30874 whole entry): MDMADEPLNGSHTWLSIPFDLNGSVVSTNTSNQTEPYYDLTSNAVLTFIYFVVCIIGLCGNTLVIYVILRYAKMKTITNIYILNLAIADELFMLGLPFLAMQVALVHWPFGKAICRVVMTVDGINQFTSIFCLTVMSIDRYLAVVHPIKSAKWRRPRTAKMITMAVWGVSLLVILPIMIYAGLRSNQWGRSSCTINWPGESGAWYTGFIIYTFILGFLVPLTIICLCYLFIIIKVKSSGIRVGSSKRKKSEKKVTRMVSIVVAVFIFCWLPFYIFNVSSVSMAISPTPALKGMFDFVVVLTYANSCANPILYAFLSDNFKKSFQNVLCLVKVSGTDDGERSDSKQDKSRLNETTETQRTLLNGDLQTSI

Take `CSc1cccc2c(C(C)(C)NC(=O)[C@H]3[C@@H]4CNC[C@@H]43)nn(C)c12` [Compound 14, (1R,5S,6R)-N-(2-(1-Methyl-7-(Methylthio)-1H-Indazol-3-yl)Prop-2-yl)-3-Azabicyclo[3.1.0]Hexane-6-Carboxamide]: the “Mechanical allodynia test (PWT (g), mean) Baseline” value in the series with rat CFA pain model (10 mg/kg I.P. group, baseline 24 h after CFA, before administration) is given as 3.566 g. In the series on rat CFA pain model (10 mg/kg I.P., 1 hour after single administration), the “Mechanical allodynia test (PWT (g), mean) 1 hour” value stood at 4.628 g. The “efficacy compared with Control Compound A (in words)” value in the series with rat CFA pain model (10 mg/kg I.P., 3 hours after administration) is recorded as “significantly better than that of Control Compound A”. In addition, the “Mechanical allodynia test (PWT (g), mean) 3 hours” value in the series on rat CFA pain model (10 mg/kg I.P., 3 hours after single administration) is 8.886 **** # g. The “inhibition of CFA-induced mechanical allodynia (in words)” value in the series with rat CFA pain model (10 mg/kg I.P., single administration, FIG. 1) is on record as “inhibited CFA-induced mechanical allodynia”. Also, the Ki (commonly a measure of affinity in units of concentration, obtained from inhibition or displacement) on human SSTR3 is over 3420 nM; at human SSTR5, over 5650 nM; at human SSTR2, over 5310 nM; on human SSTR1, 799 nM. In series [1], the half-life (usually the time in which the quantity being followed falls by half) at 1 µM was over 3.11 h.
